The subject of experiment [1] is NADH kinase (the present enzyme). Briefly: Inhibition, activation and stabilization of the present enzyme. It is filed as biochemical, Pichia membranaefaciens.
Experiment [2] relates to NADH kinase A. Conditions: Table 3, NADH kinase A; cited from earlier work.
Experiment [3] deals with NADH kinase B. Conditions: Table 3, NADH kinase B; cited from earlier work.
In experiment [4] the test system is NADH kinase (the present enzyme). Briefly: Substrate specificity of the present enzyme (NADH vs NAD+). It is filed as biochemical, Pichia membranaefaciens. As to conditions: for Specificity (relative activity, NADH = 100): Table 3, present enzyme; for Relative activity (%): substrate NADH or NAD+, ATP, pH 8.5, 30° C., 20 minutes, percentage based on NADH. On the procedure: The substrate specificity of the present enzyme was examined under the following reaction conditions. […]
To 0.9 ml of each of the above substrate solutions containing NADH or NAD^+ was added 0.1 ml of 23 U/ml of the present enzyme, and the reaction was carried out at 30° C. for 20 minutes. Then, the reaction was terminated by heat treatment at 100° C. for 2 minutes, and the denatured protein was removed, after which the amount of NADPH or NADP^+ produced by the reaction of the corresponding substrate was measured as follows. As a control solution, there was used a mixture of each substrate solution and the present enzyme in which the reaction had been terminated immediately after mixing them.
With 1 ml of each of the reaction solutions obtained in the above was mixed 1 ml of a color-producing solution consisting of 10 mM G-6-P, 50 mM HEPPS buffer (pH 8.0), 10 mM magnesium chloride, 0.1% bovine serum albumin, 2.5 IU/ml G-6-P dehydrogenase (NADP^+ -dependent), 5 IU/ml diaphorase and 250 μM 2,6-dichlorophenolindophenol. The resulting mixture was immediately introduced into a constant-temperature cuvette of STASAR III spectrophotometer of Gilford and subjected to reaction at 30° C. Simultaneously with the reaction, the change of absorbance at 600 nm was measured with the lapse of time, and the difference (ΔOD600 nm /min) between absorbance values 1 minute and 2 minutes after the initiation of the coloration reaction was taken as a measured value. As to relative activity (%), a measured value (ΔOD600 nm /min) obtained by using NAD^+ as a substrate was shown as a percentage based on a measured value (ΔOD600 nm /min) obtained by using NADH as a substrate.

We go through 14 compounds from patent US5227299A, “NADH kinase and a process for producing the same” (Noda Institute for Scientific Research, priority 1991, dated 1993).

For `[Cd+2]` [Cd^2+], in experiment [1], the “Inhibition of the present enzyme” value is “strongly inhibited”.

As to `[Pb+2]` [Pb^2+], the “Inhibition of the present enzyme” value in experiment [1] was “strongly inhibited”.

For the compound `CC(=O)O` [sodium acetate], the “Activation of the present enzyme” value in experiment [1] is given as “activated”.

`OC[C@H]1O[C@@](CO)(O[C@H]2O[C@H](CO)[C@@H](O)[C@H](O)[C@H]2O)[C@@H](O)[C@@H]1O` [saccharose]: the “Stabilization of the present enzyme” value in experiment [1] is listed as “stabilized”.

For the compound `[Hg+2]` [Hg^2+], the “Inhibition of the present enzyme” value in experiment [1] is on record as “strongly inhibited”.

In the case of `[Mn+2]` [Mn^2+], the “Stabilization of the present enzyme” value in experiment [1] was “stabilized”.

As to `O=C(O)c1cc[c]([Hg][Cl])cc1` [p-CMB, p-chloromercuribenzoic acid, reference compound], the “Inhibition of the present enzyme” value in experiment [1] is recorded as “strongly inhibited”.

For the compound `NC(=O)c1ccc[n+]([C@@H]2O[C@H](COP(=O)([O-])OP(=O)(O)OC[C@H]3O[C@@H](n4cnc5c(N)ncnc54)[C@H](O)[C@@H]3O)[C@@H](O)[C@H]2O)c1` [NAD^+], the figures for the “Specificity (relative activity, NADH = 100)” value in experiment [2], in experiment [3] and in experiment [4] were 1.7, 1.6 and 0.9, respectively. Moreover, the “Action of the present enzyme on the substrate” value in experiment [4] was “hardly acts”. Moreover, the “Relative activity (%)” value in experiment [4] is given as 0.9%.

Consider `[Zn+2]` [Zn^2+], for which, in experiment [1], the “Inhibition of the present enzyme” value is “strongly inhibited”.

On to `[Mg+2]` [Mg^2+], for which the “Stabilization of the present enzyme” value in experiment [1] is on record as “stabilized”.

For the compound `CCCCCCCCCCCCOS(=O)(=O)[O-].[Na+]` [SDS, sodium lauryl sulfate, reference compound], the “Inhibition of the present enzyme” value in experiment [1] was “strongly inhibited”.

For `NC(=O)C1=CN([C@@H]2O[C@H](COP(=O)(O)OP(=O)(O)OC[C@H]3O[C@@H](n4cnc5c(N)ncnc54)[C@H](O)[C@@H]3O)[C@@H](O)[C@H]2O)C=CC1` [NADH], the “Specificity (relative activity, NADH = 100)” value in experiment [2] was 100. For the same compound, the “Specificity (relative activity, NADH = 100)” value in experiment [3] is on record as 100. In experiment [4], the “Action of the present enzyme on the substrate” value is given as “very specific”; the “Specificity (relative activity, NADH = 100)” value came to 100; the “Relative activity (%)” value amounted to 100%.

`N.N.O=S(=O)(O)O` [ammonium sulfate]: the “Stabilization of the present enzyme” value in experiment [1] is recorded as “stabilized”.

Turning to `[Cu+2]` [Cu^2+], the “Inhibition of the present enzyme” value in experiment [1] is “strongly inhibited”.
